Assay results as given in the kinase profiling compilation of Christmann-Franck et al. (2016).
“And” between values parts separate entries of the source, which are not always exact repeats. Identical values can stand only once.

How the values were obtained:
Assay in all cases: radiometric filter-binding kinase assay, Kinase HotSpot
Conditions in all cases: compound 0.5 µM; ATP 10 µM
KDR (human) = KDR (human) (UniProt P35968)
CLK4 (human) = CLK4 (human) (UniProt Q9HAZ1)
MKNK2 (human) = MKNK2 (human) (UniProt Q9HBH9)
STK3 (human) = STK3 (human) (UniProt Q13188)
ABL1 (human) = ABL1 (human) (UniProt P00519)
STK24 (human) = STK24 (human) (UniProt Q9Y6E0)
MAP4K5 (human) = MAP4K5 (human) (UniProt Q9Y4K4)
MARK3 (human) = MARK3 (human) (UniProt P27448)
CSK (human) = CSK (human) (UniProt P41240)
PRKX (human) = PRKX (human) (UniProt P51817)
STK25 (human) = STK25 (human) (UniProt O00506)
CSNK1A1 (human) = CSNK1A1 (human) (UniProt P48729)
ACVRL1 (human) = ACVRL1 (human) (UniProt P37023)
GRK7 (human) = GRK7 (human) (UniProt Q8WTQ7)
TGFBR2 (human) = TGFBR2 (human) (UniProt P37173)
EGFR (human) = EGFR (human) (UniProt P00533)
PRKCI (human) = PRKCI (human) (UniProt P41743)
CLK3 (human) = CLK3 (human) (UniProt P49761)
CDK6 CCND3 (human) = CDK6 CCND3 (human) (UniProt P30281+Q00534)
PRKG1 (human) = PRKG1 (human) (UniProt Q13976)
BRSK1 (human) = BRSK1 (human) (UniProt Q8TDC3)
CDK1 CCNA2 (human) = CDK1 CCNA2 (human) (UniProt P06493+P20248)
CDK9 CCNT1 (human) = CDK9 CCNT1 (human) (UniProt P50750+O60563)
RET (human) = RET (human) (UniProt P07949)
RAF1 (human) = RAF1 (human) (UniProt P04049)
TSSK1B (human) = TSSK1B (human) (UniProt Q9BXA7)
EPHB3 (human) = EPHB3 (human) (UniProt P54753)
MAP3K5 (human) = MAP3K5 (human) (UniProt Q99683)
CAMK4 (human) = CAMK4 (human) (UniProt Q16566)
CSNK1G3 (human) = CSNK1G3 (human) (UniProt Q9Y6M4)
DYRK1A (human) = DYRK1A (human) (UniProt Q13627)
BRSK2 (human) = BRSK2 (human) (UniProt Q8IWQ3)
MAP3K14 (human) = MAP3K14 (human) (UniProt Q99558)
IRAK4 (human) = IRAK4 (human) (UniProt Q9NWZ3)
VRK1 (human) = VRK1 (human) (UniProt Q99986)
CDK3 CCNE1 (human) = CDK3 CCNE1 (human) (UniProt Q00526+P24864)
CLK1 (human) = CLK1 (human) (UniProt P49759)
MARK2 (human) = MARK2 (human) (UniProt Q7KZI7)
DAPK3 (human) = DAPK3 (human) (UniProt O43293)
NEK6 (human) = NEK6 (human) (UniProt Q9HC98)
PIM1 (human) = PIM1 (human) (UniProt P11309)

EPHB3 (human), sequence (P54753 whole entry, looked up): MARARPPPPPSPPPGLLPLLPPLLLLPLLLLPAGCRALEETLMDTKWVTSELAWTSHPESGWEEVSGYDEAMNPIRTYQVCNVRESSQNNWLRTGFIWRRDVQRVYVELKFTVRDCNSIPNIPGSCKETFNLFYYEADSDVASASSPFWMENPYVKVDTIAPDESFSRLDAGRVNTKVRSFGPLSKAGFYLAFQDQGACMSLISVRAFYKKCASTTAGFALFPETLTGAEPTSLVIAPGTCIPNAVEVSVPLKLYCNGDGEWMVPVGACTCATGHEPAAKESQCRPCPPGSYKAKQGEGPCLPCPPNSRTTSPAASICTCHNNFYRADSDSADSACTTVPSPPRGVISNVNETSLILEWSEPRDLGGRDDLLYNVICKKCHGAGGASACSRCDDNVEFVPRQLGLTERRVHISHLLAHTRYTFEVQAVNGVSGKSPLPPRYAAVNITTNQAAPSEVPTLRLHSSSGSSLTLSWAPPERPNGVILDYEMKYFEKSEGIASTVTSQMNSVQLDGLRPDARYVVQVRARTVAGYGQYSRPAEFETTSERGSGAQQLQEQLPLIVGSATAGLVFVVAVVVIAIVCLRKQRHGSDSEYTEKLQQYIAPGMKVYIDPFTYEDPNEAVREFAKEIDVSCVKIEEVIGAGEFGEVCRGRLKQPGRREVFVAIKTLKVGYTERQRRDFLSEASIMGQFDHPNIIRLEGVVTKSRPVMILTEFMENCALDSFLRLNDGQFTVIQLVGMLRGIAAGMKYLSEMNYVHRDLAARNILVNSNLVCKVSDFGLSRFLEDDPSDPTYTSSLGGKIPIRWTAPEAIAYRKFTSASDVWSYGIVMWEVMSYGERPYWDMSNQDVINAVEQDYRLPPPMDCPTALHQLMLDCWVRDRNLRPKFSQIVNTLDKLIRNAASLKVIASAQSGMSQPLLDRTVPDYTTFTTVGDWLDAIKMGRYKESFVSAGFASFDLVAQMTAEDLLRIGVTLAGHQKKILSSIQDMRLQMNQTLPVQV
CDK3 CCNE1 (human), sequence (P24864 whole entry, looked up): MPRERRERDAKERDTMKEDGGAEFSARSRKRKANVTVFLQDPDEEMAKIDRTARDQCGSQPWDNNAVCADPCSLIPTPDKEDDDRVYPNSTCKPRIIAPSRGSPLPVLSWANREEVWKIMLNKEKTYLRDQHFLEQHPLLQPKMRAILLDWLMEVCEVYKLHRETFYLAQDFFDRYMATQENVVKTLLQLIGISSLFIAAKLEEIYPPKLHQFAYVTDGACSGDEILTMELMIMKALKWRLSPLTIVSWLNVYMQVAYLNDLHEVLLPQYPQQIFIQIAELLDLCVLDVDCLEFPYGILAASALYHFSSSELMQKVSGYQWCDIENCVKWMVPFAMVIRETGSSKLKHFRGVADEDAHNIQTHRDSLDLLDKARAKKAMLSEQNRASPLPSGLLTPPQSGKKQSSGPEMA
CDK3 CCNE1 (human), sequence (Q00526 whole entry, looked up): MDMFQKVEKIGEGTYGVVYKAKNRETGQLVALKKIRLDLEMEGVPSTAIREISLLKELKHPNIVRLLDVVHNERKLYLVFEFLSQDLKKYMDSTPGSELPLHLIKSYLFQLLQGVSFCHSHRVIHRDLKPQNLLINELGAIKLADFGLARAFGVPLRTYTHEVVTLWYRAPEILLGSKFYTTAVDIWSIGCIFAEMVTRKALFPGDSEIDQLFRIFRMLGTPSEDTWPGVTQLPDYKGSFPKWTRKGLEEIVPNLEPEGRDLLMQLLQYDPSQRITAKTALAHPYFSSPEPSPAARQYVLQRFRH
CSK (human), sequence (P41240 whole entry, looked up): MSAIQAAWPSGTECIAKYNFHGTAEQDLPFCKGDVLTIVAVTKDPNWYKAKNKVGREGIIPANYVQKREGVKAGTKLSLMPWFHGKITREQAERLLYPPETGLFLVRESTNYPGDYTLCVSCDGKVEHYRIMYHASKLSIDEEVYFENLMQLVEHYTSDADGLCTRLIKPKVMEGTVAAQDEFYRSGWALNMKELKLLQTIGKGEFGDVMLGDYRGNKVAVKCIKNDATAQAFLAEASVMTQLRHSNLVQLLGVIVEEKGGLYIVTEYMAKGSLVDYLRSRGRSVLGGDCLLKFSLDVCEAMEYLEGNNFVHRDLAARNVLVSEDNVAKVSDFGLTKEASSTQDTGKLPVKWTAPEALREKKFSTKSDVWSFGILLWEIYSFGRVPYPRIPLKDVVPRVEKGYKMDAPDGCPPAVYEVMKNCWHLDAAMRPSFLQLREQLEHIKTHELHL
RET (human), sequence (P07949 whole entry, looked up): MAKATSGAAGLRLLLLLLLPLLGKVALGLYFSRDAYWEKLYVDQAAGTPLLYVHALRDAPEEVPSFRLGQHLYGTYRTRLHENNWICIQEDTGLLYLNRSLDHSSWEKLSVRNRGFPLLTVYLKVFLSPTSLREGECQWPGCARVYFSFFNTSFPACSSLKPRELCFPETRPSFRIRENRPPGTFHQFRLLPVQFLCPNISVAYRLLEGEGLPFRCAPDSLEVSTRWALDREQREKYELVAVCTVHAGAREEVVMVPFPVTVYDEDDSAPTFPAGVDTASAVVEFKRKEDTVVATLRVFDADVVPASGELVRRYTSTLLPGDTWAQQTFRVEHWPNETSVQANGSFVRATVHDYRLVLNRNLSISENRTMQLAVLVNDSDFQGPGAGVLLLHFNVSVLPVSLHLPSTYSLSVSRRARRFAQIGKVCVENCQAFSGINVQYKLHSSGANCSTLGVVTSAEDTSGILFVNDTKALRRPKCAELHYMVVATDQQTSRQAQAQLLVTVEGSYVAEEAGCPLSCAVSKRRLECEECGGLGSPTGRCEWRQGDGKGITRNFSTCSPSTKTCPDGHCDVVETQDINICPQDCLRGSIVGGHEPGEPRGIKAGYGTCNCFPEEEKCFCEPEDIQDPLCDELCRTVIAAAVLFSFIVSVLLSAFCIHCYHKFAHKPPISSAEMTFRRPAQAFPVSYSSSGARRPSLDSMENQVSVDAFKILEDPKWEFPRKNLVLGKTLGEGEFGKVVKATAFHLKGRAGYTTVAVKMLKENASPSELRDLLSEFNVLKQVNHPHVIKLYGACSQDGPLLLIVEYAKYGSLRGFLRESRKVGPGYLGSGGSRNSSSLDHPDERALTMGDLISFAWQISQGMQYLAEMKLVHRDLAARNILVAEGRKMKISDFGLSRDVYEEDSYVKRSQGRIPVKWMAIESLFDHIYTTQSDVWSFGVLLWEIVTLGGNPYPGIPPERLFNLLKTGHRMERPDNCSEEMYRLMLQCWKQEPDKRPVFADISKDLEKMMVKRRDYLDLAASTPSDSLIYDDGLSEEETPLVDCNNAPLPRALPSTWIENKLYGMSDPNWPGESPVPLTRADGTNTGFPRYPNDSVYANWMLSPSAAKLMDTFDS
RAF1 (human), sequence (P04049 whole entry, looked up): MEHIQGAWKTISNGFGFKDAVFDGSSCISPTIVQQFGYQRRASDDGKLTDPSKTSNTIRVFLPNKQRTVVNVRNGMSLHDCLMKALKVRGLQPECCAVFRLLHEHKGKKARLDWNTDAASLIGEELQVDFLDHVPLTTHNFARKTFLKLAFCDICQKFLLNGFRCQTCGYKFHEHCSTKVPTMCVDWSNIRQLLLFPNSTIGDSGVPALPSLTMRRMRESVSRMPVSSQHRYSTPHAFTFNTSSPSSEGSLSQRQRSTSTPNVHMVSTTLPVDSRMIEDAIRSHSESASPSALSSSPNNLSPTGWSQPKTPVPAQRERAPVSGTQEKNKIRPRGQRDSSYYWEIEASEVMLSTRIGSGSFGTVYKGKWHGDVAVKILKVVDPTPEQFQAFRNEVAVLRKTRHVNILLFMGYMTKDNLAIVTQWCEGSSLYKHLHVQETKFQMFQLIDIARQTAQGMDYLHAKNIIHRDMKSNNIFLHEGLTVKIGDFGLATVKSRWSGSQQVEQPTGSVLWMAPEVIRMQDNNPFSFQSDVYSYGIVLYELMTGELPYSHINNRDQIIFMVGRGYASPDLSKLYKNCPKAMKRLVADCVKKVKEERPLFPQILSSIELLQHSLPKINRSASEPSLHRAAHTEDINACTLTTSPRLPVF
MAP4K5 (human), sequence (Q9Y4K4 whole entry, looked up): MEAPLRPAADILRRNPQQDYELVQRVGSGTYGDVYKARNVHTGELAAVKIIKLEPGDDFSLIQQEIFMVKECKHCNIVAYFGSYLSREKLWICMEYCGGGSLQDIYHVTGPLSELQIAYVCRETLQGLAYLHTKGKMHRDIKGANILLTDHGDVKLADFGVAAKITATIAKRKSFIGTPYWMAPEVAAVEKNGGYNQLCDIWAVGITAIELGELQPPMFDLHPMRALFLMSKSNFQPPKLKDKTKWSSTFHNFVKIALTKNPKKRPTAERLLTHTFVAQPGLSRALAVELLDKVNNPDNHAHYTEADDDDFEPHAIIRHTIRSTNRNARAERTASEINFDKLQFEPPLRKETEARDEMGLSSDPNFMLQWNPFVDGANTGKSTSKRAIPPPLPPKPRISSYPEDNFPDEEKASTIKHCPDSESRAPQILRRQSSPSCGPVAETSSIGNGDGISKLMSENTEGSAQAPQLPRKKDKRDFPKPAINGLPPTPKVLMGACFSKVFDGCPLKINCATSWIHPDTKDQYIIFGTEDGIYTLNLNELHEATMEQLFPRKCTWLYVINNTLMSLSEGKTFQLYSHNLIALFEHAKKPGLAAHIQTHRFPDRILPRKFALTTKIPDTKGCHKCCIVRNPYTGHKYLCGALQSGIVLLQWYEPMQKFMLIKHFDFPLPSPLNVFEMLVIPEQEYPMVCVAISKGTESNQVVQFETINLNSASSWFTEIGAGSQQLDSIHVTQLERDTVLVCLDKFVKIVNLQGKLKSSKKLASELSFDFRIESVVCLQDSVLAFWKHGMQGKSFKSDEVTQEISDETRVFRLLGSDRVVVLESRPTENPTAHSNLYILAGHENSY

O=c1cc(N2CCOCC2)oc2c1ccc1ccccc12
residual activity (KDR (human)): 86.8%
residual activity (CLK4 (human)): 101%
residual activity (MKNK2 (human)): 88.5%
residual activity (STK3 (human)): 99.1%
residual activity (ABL1 (human)): 104%
residual activity (STK24 (human)): 103%
residual activity (MAP4K5 (human)): 103%
residual activity (MARK3 (human)): 110%
residual activity (CSK (human)): 101%
residual activity (PRKX (human)): 96.6%
residual activity (STK25 (human)): 94.8%
residual activity (CSNK1A1 (human)): 115%
residual activity (ACVRL1 (human)): 100%
residual activity (GRK7 (human)): 107%
residual activity (TGFBR2 (human)): 122%
residual activity (EGFR (human)): 96.2%
residual activity (PRKCI (human)): 95.5%
residual activity (CLK3 (human)): 81.1%
residual activity (CDK6 CCND3 (human)): 95.1%
residual activity (PRKG1 (human)): 84.5% and 94.6%
residual activity (BRSK1 (human)): 100%
residual activity (CDK1 CCNA2 (human)): 103%
residual activity (CDK9 CCNT1 (human)): 99.1%
residual activity (RET (human)): 99.8%
residual activity (RAF1 (human)): 97.9%
residual activity (TSSK1B (human)): 101%
residual activity (EPHB3 (human)): 90%
residual activity (MAP3K5 (human)): 98.2%
residual activity (CAMK4 (human)): 94%
residual activity (CSNK1G3 (human)): 98.1%
residual activity (DYRK1A (human)): 79%
residual activity (BRSK2 (human)): 92.6%
residual activity (MAP3K14 (human)): 81.2%
residual activity (IRAK4 (human)): 122%
residual activity (VRK1 (human)): 93.3%
residual activity (CDK3 CCNE1 (human)): 102%
residual activity (CLK1 (human)): 98.3%
residual activity (MARK2 (human)): 101%
residual activity (DAPK3 (human)): 94.6%
residual activity (NEK6 (human)): 92.5%
residual activity (PIM1 (human)): 54.8%

COc1ccc(COc2ccc(Cc3cnc(N)nc3N)cc2OC)cc1
residual activity (KDR (human)): 109%
residual activity (CLK4 (human)): 86.5%
residual activity (MKNK2 (human)): 90.6%
residual activity (STK3 (human)): 98.4%
residual activity (ABL1 (human)): 102%
residual activity (STK24 (human)): 93.5%
residual activity (MAP4K5 (human)): 97.4%
residual activity (MARK3 (human)): 103%
residual activity (PRKX (human)): 105%
residual activity (STK25 (human)): 97%
residual activity (CSNK1A1 (human)): 97.9%
residual activity (ACVRL1 (human)): 101%
residual activity (GRK7 (human)): 104%
residual activity (TGFBR2 (human)): 127%
residual activity (EGFR (human)): 96.9%
residual activity (PRKCI (human)): 91.6%
residual activity (CLK3 (human)): 98.3%
residual activity (CDK6 CCND3 (human)): 94.5%
residual activity (PRKG1 (human)): 91.7% and 98.3%
residual activity (BRSK1 (human)): 95.6%
residual activity (CDK1 CCNA2 (human)): 98.7%
residual activity (CDK9 CCNT1 (human)): 92.5%
residual activity (RET (human)): 108%
residual activity (TSSK1B (human)): 95.2%
residual activity (EPHB3 (human)): 91.8%
residual activity (MAP3K5 (human)): 89%
residual activity (CAMK4 (human)): 94.7%
residual activity (DYRK1A (human)): 88.1%
residual activity (BRSK2 (human)): 96.8%
residual activity (MAP3K14 (human)): 81.8%
residual activity (IRAK4 (human)): 110%
residual activity (VRK1 (human)): 91.4%
residual activity (CDK3 CCNE1 (human)): 82.9%
residual activity (CLK1 (human)): 103%
residual activity (DAPK3 (human)): 104%
residual activity (NEK6 (human)): 99.4%
residual activity (PIM1 (human)): 104%

c1ccc(-c2n[nH]c3c2oc2ccccc23)cc1
residual activity (KDR (human)): 107%
residual activity (CLK4 (human)): 98.9%
residual activity (MKNK2 (human)): 70%
residual activity (STK3 (human)): 49.6%
residual activity (ABL1 (human)): 99.6%
residual activity (STK24 (human)): 75.3%
residual activity (MAP4K5 (human)): 36.6%
residual activity (MARK3 (human)): 96.5%
residual activity (CSK (human)): 92.6%
residual activity (PRKX (human)): 79.8%
residual activity (STK25 (human)): 89.6%
residual activity (CSNK1A1 (human)): 73.8%
residual activity (ACVRL1 (human)): 111%
residual activity (GRK7 (human)): 102%
residual activity (TGFBR2 (human)): 94.1%
residual activity (PRKCI (human)): 85.9%
residual activity (CLK3 (human)): 91%
residual activity (CDK6 CCND3 (human)): 91.6%
residual activity (PRKG1 (human)): 102% and 103%
residual activity (BRSK1 (human)): 92.4%
residual activity (CDK1 CCNA2 (human)): 94.1%
residual activity (CDK9 CCNT1 (human)): 83.9%
residual activity (RET (human)): 78.2%
residual activity (RAF1 (human)): 94.9%
residual activity (TSSK1B (human)): 97.2%
residual activity (EPHB3 (human)): 84.7%
residual activity (MAP3K5 (human)): 97.4%
residual activity (CAMK4 (human)): 93.7%
residual activity (CSNK1G3 (human)): 88.5%
residual activity (DYRK1A (human)): 114%
residual activity (BRSK2 (human)): 101%
residual activity (MAP3K14 (human)): 71.8%
residual activity (IRAK4 (human)): 92.7%
residual activity (VRK1 (human)): 83.1%
residual activity (CDK3 CCNE1 (human)): 90%
residual activity (CLK1 (human)): 84%
residual activity (MARK2 (human)): 92.9%
residual activity (DAPK3 (human)): 91.5%
residual activity (NEK6 (human)): 99%
residual activity (PIM1 (human)): 83.3%

O=S(=O)(c1cccc2cnccc12)N1CCCNCC1
residual activity (KDR (human)): 86.9%
residual activity (CLK4 (human)): 97.1%
residual activity (MKNK2 (human)): 72%
residual activity (STK3 (human)): 90%
residual activity (ABL1 (human)): 96.8%
residual activity (STK24 (human)): 70.2%
residual activity (MAP4K5 (human)): 36.3%
residual activity (CSK (human)): 87.9%
residual activity (PRKX (human)): 23.5%
residual activity (STK25 (human)): 84.8%
residual activity (ACVRL1 (human)): 111%
residual activity (GRK7 (human)): 114%
residual activity (TGFBR2 (human)): 97%
residual activity (PRKCI (human)): 87.2%
residual activity (CLK3 (human)): 83.7%
residual activity (CDK6 CCND3 (human)): 95.8%
residual activity (PRKG1 (human)): 79.6% and 87.7%
residual activity (BRSK1 (human)): 97.5%
residual activity (CDK1 CCNA2 (human)): 98.6%
residual activity (CDK9 CCNT1 (human)): 80.7%
residual activity (RET (human)): 97.8%
residual activity (RAF1 (human)): 98.3%
residual activity (TSSK1B (human)): 93.5%
residual activity (EPHB3 (human)): 95.4%
residual activity (MAP3K5 (human)): 88.7%
residual activity (CAMK4 (human)): 92.9%
residual activity (CSNK1G3 (human)): 85%
residual activity (DYRK1A (human)): 99.4%
residual activity (BRSK2 (human)): 91.7%
residual activity (MAP3K14 (human)): 97.7%
residual activity (IRAK4 (human)): 108%
residual activity (VRK1 (human)): 87.6%
residual activity (CDK3 CCNE1 (human)): 76.6%
residual activity (CLK1 (human)): 96.3%
residual activity (MARK2 (human)): 108%
residual activity (DAPK3 (human)): 93%
residual activity (NEK6 (human)): 97.6%
residual activity (PIM1 (human)): 77%

CC#CC(=O)Nc1cc2c(Nc3ccc(F)c(Cl)c3)ncnc2cn1
residual activity (KDR (human)): 98.2%
residual activity (CLK4 (human)): 90.4%
residual activity (MKNK2 (human)): 66%
residual activity (STK3 (human)): 106%
residual activity (ABL1 (human)): 97.8%
residual activity (STK24 (human)): 107%
residual activity (MAP4K5 (human)): 100%
residual activity (MARK3 (human)): 107%
residual activity (CSK (human)): 100%
residual activity (PRKX (human)): 103%
residual activity (STK25 (human)): 97.1%
residual activity (CSNK1A1 (human)): 107%
residual activity (ACVRL1 (human)): 101%
residual activity (GRK7 (human)): 106%
residual activity (TGFBR2 (human)): 123%
residual activity (PRKCI (human)): 96.6%
residual activity (CLK3 (human)): 47.1%
residual activity (CDK6 CCND3 (human)): 103%
residual activity (PRKG1 (human)): 91.7% and 97.6%
residual activity (BRSK1 (human)): 102%
residual activity (CDK1 CCNA2 (human)): 96.5%
residual activity (CDK9 CCNT1 (human)): 90.6%
residual activity (RET (human)): 84.3%
residual activity (RAF1 (human)): 85.6%
residual activity (TSSK1B (human)): 104%
residual activity (EPHB3 (human)): 85.4%
residual activity (MAP3K5 (human)): 98.9%
residual activity (CAMK4 (human)): 97.4%
residual activity (CSNK1G3 (human)): 111%
residual activity (DYRK1A (human)): 96.4%
residual activity (BRSK2 (human)): 93.3%
residual activity (MAP3K14 (human)): 80.4%
residual activity (IRAK4 (human)): 102%
residual activity (VRK1 (human)): 87.8%
residual activity (CDK3 CCNE1 (human)): 96.8%
residual activity (CLK1 (human)): 82.5%
residual activity (MARK2 (human)): 105%
residual activity (DAPK3 (human)): 97.8%
residual activity (NEK6 (human)): 97.5%
residual activity (PIM1 (human)): 98.6%
